{"source": "patent US20060009423A1", "about": "“Phosphonate-phosphate and diphosphonate apolipoprotein e modulators” (priority 2002, published 2006)", "key": {"THP-1 cells": {"test_system": "THP-1 cells", "assay": "In vitro apoE secretion by THP-1 cells (ELISA)", "type": "cell-based, human", "details": "72 hours incubation, ELISA of culture medium", "excerpt": "The in vitro assay comprises determining the effect of a compound of formula (I) in modulating the secretion of apoE by an apoE secreting cell line (e.g., a monocyte-macrophage cell line such as the THP-1 cell line, a liver derived cell line such as the HepG2 cell line, an intestinal derived cell line such as the CaCo2 cell line, or a brain derived cell line such as the astrocytoma CCF-STTG1 cell line). The experimental details for use of the THP-1 cell line in the in vitro assay are provided below.\nThe THP-1 cell line was derived from the peripheral blood of a child with acute monocytic leukaemia and were obtained from the European Collection of Animal Cell Cultures (ECACC, #88081201). […] The cells are grown as non-adherent cells in RPMI 1640 culture medium, 2 mM glutamine, 20 μM 2-mercaptoethanol. Fresh medium is added to maintain cell density between 2 and 9×10^5 cells/ml. […]\nNinety-six well-microtiter plates are coated by incubating with a 5% gelatin solution from porcine skin, bloom 60 in 50 mM carbonate-bicarbonate buffer, pH9.6 at the concentration of 200 μl/well, for 2 hours at 37° C. The coating solution is carefully removed and the sample to be analyzed was added (100 μl/well) at the appropriate dilution. […] The absorbance at 492 nm versus 620 nm is read on a microplate photometer and the results are then converted in human apoE ng equivalent. […]"}, "apoE plasma levels": {"test_system": "apoE plasma levels", "assay": "ApoE plasma levels in vivo in the rat (ATRA)"}, "plasma apoE": {"test_system": "plasma apoE", "assay": "Plasma apoE levels in vivo in rats fed a normal diet", "set-up": "species or system rat", "details": "orally, 400 mg/kg per day for 5 days", "excerpt": "A convenient model for the screening of apoE modulating compounds is the model described in Leininger-Muller & Siest, 1996. This model involves the use of rats fed a normal diet. Selected compounds of formula (I) ae submitted to the in vivo rat test. Following are the results for compound 1, diethyl α-(dimethoxyphosphinyl)-p-chlorobenzyl phosphate: [drawing 3]\nTwo groups of 4 or 5 OFA rats (Iffa-Credo, France) weighing between 140 g and 160 g were acclimatized for at least one week, allowed UAR food and tap water ad libitum, under a 12/12 hours light/obscurity cycle (7.00 am-7.00 pm) then treated daily between 3.00 pm and 4.00 pm with test compounds ([…]) p.o. in a vehicle volume of 1 ml for 5 days. Compound 1 was given as a suspension in 20% Tween-80 supplemented with 0.5% carboxymethylcellulose. Control group received 1 ml vehicle alone. After a treatment period of 5 days, rats were weighed, sacrificed by decapitation under pentobarbital anesthesia after an overnight fast. Blood was collected on EDTA and plasma was used for analysis. When given orally to rats at the dose of 400 mg/kg per day for 5 days, compound 1 increased plasma apoE by 61±8%."}, "apoE in sciatic nerve": {"test_system": "apoE in sciatic nerve", "assay": "Sciatic nerve tissue apoE levels in vivo, rat model of sciatic injury (ELISA)", "details": "rats, orally, 400 mg/kg/day for 37 days; % change from control", "experimental": "A rat model of sciatic injury was established according to Goodrum & Boudin, 1996. Rats with or without nerve injury were treated orally with compound 1 (400 mg/kg for 5 weeks). The amount of apoE was determined in homogenates of the sciatic nerves by ELISA using a goat anti-apolipoprotein E antibody. A dilution to 1/200 of rat plasma was coated on microtiter plates; apoE was recognized by the polyclonal antibody; the conjugate (anti-goat IgG peroxidase) antibody was then added for substrate biochemical recognition. Apolipoprotein E was expressed as % change from mean control value. Cholesterol was measured with a commercially available enzymatic kit (Bioreac, Switzerland). Results were expressed as % change from control group."}}, "data": [{"smiles": "CC1=C(/C=C/C(C)=C/C=C/C(C)=C/C(=O)O)C(C)(C)CCC1", "note": "[ATRA, all-trans retinoic acid]", "values": [{"measurement": "production of apoE by THP-1 cells", "setting": "THP-1 cells", "result": "decreased the production of apoE"}, {"measurement": "apoE plasma levels observed in vivo in the rat", "setting": "apoE plasma levels", "result": "decreased apoE plasma levels"}]}, {"smiles": "CCOP(=O)(OCC)OC(c1ccc(Cl)cc1)P(=O)(OC)OC", "note": "(stereo not drawn) [compound 1, diethyl α-(dimethoxyphosphinyl)-p-chlorobenzyl phosphate]", "values": [{"measurement": "increase of plasma apoE", "setting": "plasma apoE", "result": "61±8", "unit": "%"}, {"measurement": "increase of apoE in the contralateral nerve", "setting": "apoE in sciatic nerve", "result": 58, "unit": "%"}, {"measurement": "increase of apoE in the crushed sciatic nerve", "setting": "apoE in sciatic nerve", "result": 154, "unit": "%"}]}]}
